Experimental data as given in patent US9029386B2, “Pyridine derivatives useful as kinase inhibitors” (YM Biosciences Australia Pty Ltd, priority 2006, dated 2015).

Experiments:
Assay type in all cases: biochemical
Flt1(h) = target: T1, Flt1(h) (Homo sapiens, UniProt P17948); experiment: KinaseProfiler assay (Upstate), Flt1
T1 construct: purchased Upstate Biotechnology (Dundee, UK), KinaseProfiler service
Protocol: (§1) Further enzyme assays were conducted at Upstate Biotechnology (Dundee, UK) in the KinaseProfiler™ Assay system.
(§2) The general protocol is as follows. All kinases are pre-diluted to a 10× working concentration prior to addition into the assay. The composition of the dilution buffer for the kinases is 20 mM MOPS pH 7.0, 1 mM EDTA, 0.1% β-mercaptoethanol, 0.01% Brij-35, 5% glycerol, 1 mg/ml BSA. All substrates are dissolved and diluted to working stocks in de-ionised water.
In a final reaction volume of 25 Flt1 (h) (5-10 mU) is incubated with 8 mM MOPS pH 7.0, 0.2 mM EDTA, 250 μM […], 10 mM MgAcetate and [γ-33P-ATP] (specific activity approx. 500 cpm/pmol, concentration as required). The reaction is initiated by the addition of the MgATP mix. After incubation for 40 minutes at room temperature, the reaction is stopped by the addition of 5 μl of a 3% phosphoric acid solution. 10 μl of the reaction is then spotted onto a P30 filtermat and washed three times for 5 minutes in 75 mM phosphoric acid and once in methanol prior to drying and scintillation counting.

EphA2(h) = target: T2, EphA2(h) (Homo sapiens, UniProt P29317); experiment: KinaseProfiler assay (Upstate), EphA2
T2 construct: purchased Upstate Biotechnology (Dundee, UK), KinaseProfiler service
T2 sequence (P29317 24-976): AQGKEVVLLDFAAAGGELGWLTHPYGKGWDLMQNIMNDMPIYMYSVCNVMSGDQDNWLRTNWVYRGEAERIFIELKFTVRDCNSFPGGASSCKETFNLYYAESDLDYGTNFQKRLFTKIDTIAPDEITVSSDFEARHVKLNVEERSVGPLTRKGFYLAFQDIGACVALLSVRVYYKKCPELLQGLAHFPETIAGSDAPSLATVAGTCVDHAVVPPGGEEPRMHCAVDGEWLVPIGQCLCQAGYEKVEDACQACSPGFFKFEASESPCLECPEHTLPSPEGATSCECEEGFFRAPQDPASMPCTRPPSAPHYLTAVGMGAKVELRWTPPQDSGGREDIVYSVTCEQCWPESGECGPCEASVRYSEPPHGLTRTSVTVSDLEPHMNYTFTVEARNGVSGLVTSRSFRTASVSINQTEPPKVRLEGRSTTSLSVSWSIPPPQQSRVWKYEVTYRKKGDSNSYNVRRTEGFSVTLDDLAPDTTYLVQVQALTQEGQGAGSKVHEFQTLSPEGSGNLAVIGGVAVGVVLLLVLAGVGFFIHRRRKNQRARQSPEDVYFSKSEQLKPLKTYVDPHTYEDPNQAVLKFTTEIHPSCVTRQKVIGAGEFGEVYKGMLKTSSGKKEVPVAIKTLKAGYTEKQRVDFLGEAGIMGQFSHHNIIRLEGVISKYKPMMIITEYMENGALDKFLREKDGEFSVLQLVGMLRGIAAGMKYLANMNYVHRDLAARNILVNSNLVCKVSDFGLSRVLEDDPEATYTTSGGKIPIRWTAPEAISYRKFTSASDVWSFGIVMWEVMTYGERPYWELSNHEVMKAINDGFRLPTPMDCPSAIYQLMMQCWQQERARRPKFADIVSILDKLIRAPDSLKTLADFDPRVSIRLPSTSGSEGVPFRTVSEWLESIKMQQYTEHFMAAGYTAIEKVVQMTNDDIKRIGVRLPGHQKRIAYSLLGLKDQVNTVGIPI
Protocol: as §1, §2
In a final reaction volume of 25 EphA2 (h) (5-10 mU) is incubated with 8 mM MOPS pH 7.0, 0.2 mM EDTA, 0.1 mg/ml poly(Glu, Tyr) 4:1, 10 mM MgAcetate and [γ-33P-ATP] (specific activity approx. 500 cpm/pmol, concentration as required). The reaction is initiated by the addition of the MgATP mix. After incubation for 40 minutes at room temperature, the reaction is stopped by the addition of 5 μl of a 3% phosphoric acid solution. 10 μl of the reaction is then spotted onto a Filtermat A and washed three times for 5 minutes in 75 mM phosphoric acid and once in methanol prior to drying and scintillation counting.

EphA8(h) = target: T3, EphA8(h) (Homo sapiens, UniProt P29322); experiment: KinaseProfiler assay (Upstate), EphA8
T3 construct: purchased Upstate Biotechnology (Dundee, UK), KinaseProfiler service
T3 sequence (P29322 28-1005): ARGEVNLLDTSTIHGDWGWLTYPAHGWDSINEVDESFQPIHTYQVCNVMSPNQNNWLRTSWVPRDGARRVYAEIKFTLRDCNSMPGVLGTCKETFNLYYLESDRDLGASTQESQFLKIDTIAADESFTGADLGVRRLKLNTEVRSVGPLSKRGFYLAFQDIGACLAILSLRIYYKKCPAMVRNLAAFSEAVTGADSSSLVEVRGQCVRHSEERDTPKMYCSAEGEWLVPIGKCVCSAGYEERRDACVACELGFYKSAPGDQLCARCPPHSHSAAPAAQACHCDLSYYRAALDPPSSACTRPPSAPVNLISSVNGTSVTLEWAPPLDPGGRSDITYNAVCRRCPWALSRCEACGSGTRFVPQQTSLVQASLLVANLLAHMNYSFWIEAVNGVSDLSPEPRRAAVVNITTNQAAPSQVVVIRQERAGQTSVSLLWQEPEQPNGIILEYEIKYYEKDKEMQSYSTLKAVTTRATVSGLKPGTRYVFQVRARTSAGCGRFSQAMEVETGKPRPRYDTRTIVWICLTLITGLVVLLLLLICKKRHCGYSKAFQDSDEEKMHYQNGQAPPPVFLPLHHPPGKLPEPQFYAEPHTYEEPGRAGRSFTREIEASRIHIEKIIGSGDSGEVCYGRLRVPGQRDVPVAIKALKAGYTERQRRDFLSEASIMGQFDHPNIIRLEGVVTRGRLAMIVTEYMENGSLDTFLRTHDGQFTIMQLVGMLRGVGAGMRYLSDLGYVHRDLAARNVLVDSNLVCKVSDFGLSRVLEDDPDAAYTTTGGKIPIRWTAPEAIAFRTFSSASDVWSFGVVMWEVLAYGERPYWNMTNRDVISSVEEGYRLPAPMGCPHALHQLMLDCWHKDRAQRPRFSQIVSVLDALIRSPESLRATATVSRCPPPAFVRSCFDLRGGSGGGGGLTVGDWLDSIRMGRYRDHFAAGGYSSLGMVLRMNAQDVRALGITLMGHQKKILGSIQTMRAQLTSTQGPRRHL
Protocol: as §1, §2

[1] = target: T4, kinase domain of human CSF1-R (Homo sapiens, UniProt P07333); experiment: Alphascreen protein tyrosine kinase assay, CSF-1R
T4 construct: from codon I553 to Q961; made in house; host or cells: Sf9 insect cells (baculovirus)
T4 sequence (P07333 553-961): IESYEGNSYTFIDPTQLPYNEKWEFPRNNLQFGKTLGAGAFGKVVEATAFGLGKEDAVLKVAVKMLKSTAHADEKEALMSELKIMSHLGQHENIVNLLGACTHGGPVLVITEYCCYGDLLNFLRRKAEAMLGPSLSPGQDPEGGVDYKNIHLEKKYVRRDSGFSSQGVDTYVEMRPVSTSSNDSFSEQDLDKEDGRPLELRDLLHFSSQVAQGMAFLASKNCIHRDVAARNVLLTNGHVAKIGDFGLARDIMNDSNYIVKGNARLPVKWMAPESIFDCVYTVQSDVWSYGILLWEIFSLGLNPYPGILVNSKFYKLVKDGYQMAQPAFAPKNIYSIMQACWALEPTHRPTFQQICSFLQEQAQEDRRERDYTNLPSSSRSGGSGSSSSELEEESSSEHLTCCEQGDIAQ
Protocol: For screening purposes, compounds were diluted in 96 well plates at a concentration of 20 μM. Plates were warmed at 37° C. for 30 minutes before assay.
The kinase domain of human CSF1-R from codon I553 to Q961 was cloned into the pDEST-20 expression vector (Invitrogen). The CSF1-R plasmid was then transformed into competent DH10Bac cells (Gibco), and the recombinant baculovirus produced prepared for transfection into Sf9 insect cells.
Baculovirus preparations from each of construct were infected into five liters of SF9 cells (Invitrogen) grown in SF-900 medium (Invitrogen) to a cell density of approximately 1−2×10^6 cells/ml. […] Cells were harvested and lysed. Tyrosine kinase domains were purified by affinity chromatography on a glutathione-agarose column (Scientifix Pty. Ltd. catalog #: GSH-200).
Kinase assays were performed in 384 well Optiplates (Packard) using an Alphascreen Protein Tyrosine Kinase kit. […] Alphascreen phosphotyrosine acceptor beads followed by streptavidin donor beads were added under subdued light. The Alphascreen plates were read on a Packard Fusion Alpha. Inhibitors were added to the assays thirty minutes prior to the addition of ATP. Inhibitors were added in aqueous DMSO, with DMSO concentrations never exceeding 1%.

PTK5(h) = target: T5, PTK5(h) (Homo sapiens, UniProt P42685); experiment: KinaseProfiler assay (Upstate), PTK5
T5 construct: purchased Upstate Biotechnology (Dundee, UK), KinaseProfiler service
T5 sequence (P42685 whole entry): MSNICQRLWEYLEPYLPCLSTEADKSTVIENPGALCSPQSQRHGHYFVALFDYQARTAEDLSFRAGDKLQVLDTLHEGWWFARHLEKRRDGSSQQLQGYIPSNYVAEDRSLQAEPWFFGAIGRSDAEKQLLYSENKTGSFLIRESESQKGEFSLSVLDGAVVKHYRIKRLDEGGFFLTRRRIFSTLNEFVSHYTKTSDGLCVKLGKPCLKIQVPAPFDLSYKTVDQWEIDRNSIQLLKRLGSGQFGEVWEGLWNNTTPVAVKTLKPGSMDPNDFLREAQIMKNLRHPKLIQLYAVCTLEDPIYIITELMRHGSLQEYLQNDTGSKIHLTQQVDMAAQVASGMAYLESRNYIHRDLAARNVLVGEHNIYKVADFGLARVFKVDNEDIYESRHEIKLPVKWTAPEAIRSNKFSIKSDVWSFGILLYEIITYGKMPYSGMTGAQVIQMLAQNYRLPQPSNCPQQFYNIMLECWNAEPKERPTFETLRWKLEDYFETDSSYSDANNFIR
Protocol: as §1, §2

T1 sequence (P17948 27-1338): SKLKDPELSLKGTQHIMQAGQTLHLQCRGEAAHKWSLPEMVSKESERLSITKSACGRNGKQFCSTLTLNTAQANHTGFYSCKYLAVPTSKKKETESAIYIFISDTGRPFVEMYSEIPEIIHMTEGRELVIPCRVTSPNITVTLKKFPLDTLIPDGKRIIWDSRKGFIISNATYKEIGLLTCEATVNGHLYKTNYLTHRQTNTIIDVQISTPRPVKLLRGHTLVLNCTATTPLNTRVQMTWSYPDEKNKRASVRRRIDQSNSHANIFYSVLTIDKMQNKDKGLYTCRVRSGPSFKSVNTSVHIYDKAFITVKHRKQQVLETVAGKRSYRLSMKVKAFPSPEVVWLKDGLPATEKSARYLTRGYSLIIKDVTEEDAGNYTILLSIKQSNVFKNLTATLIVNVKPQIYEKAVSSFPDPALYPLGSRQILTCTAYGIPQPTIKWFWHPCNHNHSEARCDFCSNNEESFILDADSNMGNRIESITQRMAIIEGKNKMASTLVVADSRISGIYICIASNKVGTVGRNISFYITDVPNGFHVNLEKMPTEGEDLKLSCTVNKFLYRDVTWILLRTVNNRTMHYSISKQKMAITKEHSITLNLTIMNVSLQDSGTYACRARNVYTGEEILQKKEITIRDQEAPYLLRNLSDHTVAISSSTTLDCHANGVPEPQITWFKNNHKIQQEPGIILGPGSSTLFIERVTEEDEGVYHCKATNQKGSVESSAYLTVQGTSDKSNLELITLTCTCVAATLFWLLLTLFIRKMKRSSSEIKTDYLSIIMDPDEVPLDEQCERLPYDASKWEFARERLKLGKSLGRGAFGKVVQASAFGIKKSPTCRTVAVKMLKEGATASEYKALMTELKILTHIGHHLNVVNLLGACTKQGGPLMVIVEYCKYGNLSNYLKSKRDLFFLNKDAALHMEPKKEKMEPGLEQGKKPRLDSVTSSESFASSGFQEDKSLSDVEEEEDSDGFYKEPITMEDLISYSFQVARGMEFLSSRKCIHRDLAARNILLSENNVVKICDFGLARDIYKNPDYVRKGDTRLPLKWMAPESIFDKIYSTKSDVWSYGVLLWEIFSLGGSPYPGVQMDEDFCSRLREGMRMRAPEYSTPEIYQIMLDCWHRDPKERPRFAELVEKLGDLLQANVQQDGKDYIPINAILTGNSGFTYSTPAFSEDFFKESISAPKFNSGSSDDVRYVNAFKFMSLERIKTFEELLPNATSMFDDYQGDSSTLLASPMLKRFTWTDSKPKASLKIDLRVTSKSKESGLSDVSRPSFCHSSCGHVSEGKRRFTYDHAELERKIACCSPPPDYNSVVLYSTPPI

Structure (SMILES)	inhibition at 0.1 µM (Flt1(h)) [%]	inhibition at 1 µM (Flt1(h)) [%]	inhibition at 0.1 µM (EphA2(h)) [%]	inhibition at 1 µM (EphA2(h)) [%]	inhibition at 0.1 µM (EphA8(h)) [%]	inhibition at 1 µM (EphA8(h)) [%]	IC50 [1] [nM]	inhibition at 0.1 µM (PTK5(h)) [%]	inhibition at 1 µM (PTK5(h)) [%]
C[C@H](Nc1cncc(Cl)n1)c1cccc(NC(=O)c2cccc(C(F)(F)F)c2)c1 [Compound 114, (S)—N-(3-(1-(6-chloropyrazin-2-ylamino)ethyl)phenyl)-3-(trifluoromethyl)benzamide]	85	99	96	101	67	97		98	100
Cc1cccc(C(=O)Nc2cccc([C@H](C)Nc3cncc(-c4ccc(N5CCN(C)CC5)cc4)n3)c2)c1 [Compound 129]	96	100	24	93	42	90	< 100	99	100
Cc1cccc(C(=O)Nc2cccc([C@H](C)Nc3cncc(-c4cccc(N5CCOCC5)c4)n3)c2)c1 [Compound 147]	95	100	97	102	71	98	< 100	94	100
C[C@H](Nc1cncc(-c2ccc(N3CCN(C)CC3)cc2)n1)c1cccc(NC(=O)c2cccc(C(F)(F)F)c2)c1 [Compound 148]	92	99	93	102	81	100	< 100	99	100
Cc1cccc(C(=O)Nc2ccc(C)c([C@H](C)Nc3cncc(Cl)n3)c2)c1 [Compound 168]	91	100	102	103	91	102		100	100

Now from value to compound:

inhibition at 0.1 µM (Flt1(h)) [%]	inhibition at 1 µM (Flt1(h)) [%]	inhibition at 0.1 µM (EphA2(h)) [%]	inhibition at 1 µM (EphA2(h)) [%]	inhibition at 0.1 µM (EphA8(h)) [%]	inhibition at 1 µM (EphA8(h)) [%]	IC50 [1] [nM]	inhibition at 0.1 µM (PTK5(h)) [%]	inhibition at 1 µM (PTK5(h)) [%]	Structure (SMILES)
98	100	87	102	66	99	< 100	91	99	Cc1cccc(C(=O)Nc2cccc([C@H](C)Nc3cncc(-c4ccc(S(N)(=O)=O)cc4)n3)c2)c1 [Compound 77]
92	99	69	99	7	64	< 100	80	98	Cc1cccc(C(=O)Nc2cccc([C@H](C)Nc3cncc(C(N)=O)n3)c2)c1 [Compound 133, (S)-6-(1-(3-(3-methylbenzamido)phenyl)ethylamino)pyrazine-2-carboxamide]
90	96	80	99	30	82	< 100	88	96	Cc1cccc(C(=O)Nc2cccc([C@H](C)Nc3cncc(-n4ccnc4)n3)c2)c1 [Compound 143, (S)—N-(3-(1-(6-(1H-imidazol-1-yl)pyrazin-2-ylamino)ethyl)phenyl)-3-methylbenzamide]
56	99	96	102	81	103	< 100	95	100	C[C@H](Nc1cncc(-c2cccc(N3CCOCC3)c2)n1)c1cccc(NC(=O)c2cccc(C(F)(F)F)c2)c1 [Compound 149]
